Data reported in US20250382258A1, “NAPHTHALENE-TYPE COMPOUND AND PREPARATION METHOD THEREFORE AND USE THEREFORE” (DALIAN INSTITUTE OF CHEMICAL PHYSICS, CHINESE ACADEMY OF …, priority 2022, published 2025).
≈ marks a conversion by molar mass, not a printed value.

Assay: water solubility under acidic conditions
Assay type: physicochemical
Settings: not given

Compound	water solubility under acidic conditions
2,2′,6,6′-tetrabenzylamine-5,5′-dihydroxy-1,1′-dicarbonylbinaphthalene	approximately 2 M
Oc1c(NCc2ccccc2)cc(NCc2ccccc2)c2c(O)c(NCc3ccccc3)cc(NCc3ccccc3)c12 [2,4,6,8-Tetrabenzylamine-1,5-naphthalenediol]	lower than 1 M
Oc1c(NCc2ccccc2)ccc2c(O)c(NCc3ccccc3)ccc12 [2,6-Dibenzylamine-1,5-naphthalenediol]	lower than 5 mM
O=C1C(NCc2ccccc2)=C(O)C(=O)c2c(O)c(NCc3ccccc3)cc(NCc3ccccc3)c21 [3,5,7-tribenzylamine-2,8-dihydroxy-1,4-dicarbonylnaphthalene]	approximately 1.6 M
O=C1C(O)=C(NCc2ccccc2)C(=O)c2ccccc21 [3-benzylamine-2-hydroxy-1,4-dicarbonylnaphthalene]	approximately 1 M

Assay: not given
Settings: in a pH=14 aqueous solution; cited from earlier work

Compound	solubility
O=C1C(O)=C(C2=C(O)C(=O)c3ccccc3C2=O)C(=O)c2ccccc21 [bilawsone]	560 mM (≈ 194 mg/mL)
